Assay results published in US12234499B2, “Compositions, methods, systems and/or kits for detecting antimicrobial resistance in bacteria” (priority 2016, dated 2025).
Read-outs that look alike come from different tables or passages of the source.

Legend:
Format in all cases: cell-based
[1] = system: bacteria expressing Classes A, B or D; test: Growth test with CLOX (FIG. 31); conditions: CLOX at a concentration of about 100 μg/ml
Protocol: (§1) Non-limiting embodiments of detection tests for enteric and non-fermenting bacteria, with various concentration ranges of one or more antibiotics, and various concentration ranges for one or more inhibitors are shown in FIG. 1-FIG. 24 and FIG. 31. These figures illustrate the concentration of the antibiotic being tested (in μg/ml) along the x-axis (not every concentration is tested in every figure), and the amount of growth of bacteria in the sample in the y-axis. The boxes illustrate the median, interquartile range, non-outlier minimum and maximum; with asterisks representing single outliers. Each figure has a panel for Class A, Class B, and Class D producing bacteria, as well as a panel for non-carbapenemase producing bacteria (NEG). In some embodiments, the detection tests described herein are not performed by imaging a change in cell morphology.
(§2) In some embodiments, the detection tests can comprise a plurality of wells comprising enteric bacteria, CLOX at 0.1 mg/ml, and MEM over a range of concentrations of about 0.0156 μg/ml to about 64 μg/ml (FIG. 31).

[2] = system: Bacteria expressing Class C β-lactamases; test: Growth test with CLOX (FIG. 31)
Protocol: as §1, §2

[3] = system: E. aerogenes G1614; test: Carbapenem MIC of study isolate; conditions: Klebsiella aerogenes, High AmpC
[4] = system: K. pneumoniae 0079; test: Carbapenem MIC of study isolate; conditions: Klebsiella pneumoniae, CTX-M-14, OmpK35 (Table 4.2 also DHA-1)
[5] = system: M. morganii G1751; test: Carbapenem MIC of study isolate; conditions: Morganella morganii, High AmpC
[6] = system: E. coli 0058; test: Carbapenem MIC of study isolate; conditions: Escherichia coli, ESBL
[7] = system: E. coli 0137; test: Carbapenem MIC of study isolate; conditions: Escherichia coli, NDM-6
[8] = system: K. pneumoniae 0043; test: Carbapenem MIC of study isolate; conditions: Klebsiella pneumoniae, SHV-12, OmpK36
[9] = system: E. coli 0119; test: Carbapenem MIC of study isolate; conditions: Escherichia coli, NDM
[10] = system: E. cloacae G1735; test: Carbapenem MIC of study isolate; conditions: Enterobacter cloacae
[11] = system: C. freundii G1706; test: Carbapenem MIC of study isolate; conditions: Citrobacter freundii, KPC
[12] = system: S. marcescens G153; test: Carbapenem MIC of study isolate; conditions: Serratia marcescens, KPC
[13] = system: K. pneumoniae G1725; test: Carbapenem MIC of study isolate; conditions: Klebsiella pneumoniae, KPC
[14] = system: E. cloacae 0032; test: Carbapenem MIC of study isolate; conditions: Enterobacter cloacae, KPC-3, TEM-1
[15] = system: E. cloacae G1691; test: Carbapenem MIC of study isolate; conditions: Enterobacter cloacae; IMP-8-producing E. cloacae G1691
[16] = system: K. pneumoniae 0047; test: Carbapenem MIC of study isolate; conditions: Klebsiella pneumoniae, OmpK35
[17] = system: K. pneumoniae G1675; test: Carbapenem MIC of study isolate; conditions: Klebsiella pneumoniae, KPC-2, SHV-5-like
[18] = system: P. mirabilis G1745; test: Carbapenem MIC of study isolate; conditions: Proteus mirabilis, CMY, TEM-1-like
[19] = system: K. pneumoniae G1758; test: Carbapenem MIC of study isolate; conditions: Klebsiella pneumoniae, CLSI MHT negative control
[20] = system: K. pneumoniae G158; test: Carbapenem MIC of study isolate; conditions: Klebsiella pneumoniae, KPC-8
[21] = system: K. oxytoca 0147; test: Carbapenem MIC of study isolate; conditions: KPC
[22] = system: K. pneumoniae 0109; test: Carbapenem MIC of study isolate; conditions: Klebsiella pneumoniae, CTX-M-15, TEM-1, SHV-1
[23] = system: P. aeruginosa G15557; test: Carbapenem MIC of study isolate; conditions: VIM-like
[24] = system: E. cloacae G1637; test: Carbapenem MIC of study isolate; conditions: Enterobacter cloacae, High AmpC
[25] = system: K. pneumoniae 0044; test: Carbapenem MIC of study isolate; conditions: Klebsiella pneumoniae, CTX-M-15, TEM-1, SHV-1
[26] = system: K. pneumoniae G1511; test: Carbapenem MIC of study isolate
[27] = system: K. pneumoniae G157; test: Carbapenem MIC of study isolate; conditions: Klebsiella pneumoniae, KPC-8
[28] = system: P. mirabilis G15185; test: Carbapenem MIC of study isolate
[29] = system: P. aeruginosa G15; test: Carbapenem MIC of study isolate; conditions: Pseudomonas aeruginosa, KPC-5
[30] = system: K. pneumoniae G1685; test: Carbapenem MIC of study isolate; conditions: Klebsiella pneumoniae, CMY-2-like
[31] = system: E. aerogenes G1648; test: Carbapenem MIC of study isolate; conditions: Klebsiella aerogenes, High AmpC
[32] = system: P. aeruginosa G15019; test: Carbapenem MIC of study isolate
[33] = system: A. baumannii 0052; test: Carbapenem MIC of study isolate; conditions: Acinetobacter baumannii, OXA-58
[34] = system: E. coli G1693; test: Carbapenem MIC of study isolate; conditions: Escherichia coli, High AmpC, S12like (Table 2), High AmpC (Table 4.2)
[35] = system: A. baumannii G1734; test: Carbapenem MIC of study isolate; conditions: Acinetobacter baumannii, OXA-40
[36] = system: E. cloacae G1693; test: Carbapenem MIC of study isolate; conditions: Enterobacter cloacae, IMP-8 (Table 4.1)
[37] = system: P. mirabilis 0155; test: Carbapenem MIC of study isolate; conditions: Proteus mirabilis, KPC
[38] = system: K. pneumoniae 0113; test: Carbapenem MIC of study isolate; conditions: Klebsiella pneumoniae, KPC-3
[39] = system: E. coli 0086; test: Carbapenem MIC of study isolate; conditions: Escherichia coli, CTX-M-9
[40] = system: P. mirabilis 0156; test: Carbapenem MIC of study isolate; conditions: Proteus mirabilis, KPC
[41] = system: K. oxytoca G1640; test: Carbapenem MIC of study isolate; conditions: Klebsiella oxytoca, KPC
[42] = system: E. coli G164; test: Carbapenem MIC of study isolate; conditions: Escherichia coli, High AmpC (Table 2), SHV-12-like (Table 4.2)
[43] = system: K. pneumoniae 0042; test: Carbapenem MIC of study isolate; conditions: Klebsiella pneumoniae, CTX-M-28, OmpK35, OmpK36
[44] = system: K. ozaenae 0096; test: Carbapenem MIC of study isolate; conditions: KPC
[45] = system: Bacteria expressing Ambler Class B carbapenemases; test: Growth tests with chelating agents added to antibiotic
Protocol: as §1

[46] = Klebsiella oxytoca, read-out: MIC
[47] = Pseudomonas aeruginosa, read-out: MIC
[48] = Klebsiella pneumoniae, KPC-4, read-out: MIC
[49] = Proteus mirabilis, IMP-27, read-out: MIC
[50] = Pseudomonas aeruginosa, VIM-2, read-out: MIC

## Cc1onc(-c2ccccc2Cl)c1C(=O)N[C@@H]1C(=O)N2[C@@H]1SC(C)(C)[C@@H]2C(=O)O [CLOX, cloxacillin]
[1]
  sensitivity to CLOX: typically not
[2]
  concentration at which bacteria are sensitive: about 100 μg/ml

## C[C@@H](O)[C@H]1C(=O)N2C(C(=O)O)=C(SCCN=CN)C[C@H]12 [Imipenem]
[3]
  MIC: > 8 µg/mL
[4]
  MIC: > 8 µg/mL
[5]
  MIC: 4 µg/mL
[6]
  MIC: ≤ 0.25 µg/mL
[7]
  MIC: > 8 µg/mL
[8]
  MIC: > 8 µg/mL
[9]
  MIC: > 8 µg/mL
[10]
  MIC: > 8 µg/mL
[11]
  MIC: 2 µg/mL
[12]
  MIC: > 8 µg/mL
[13]
  MIC: > 8 µg/mL
[14]
  MIC: 4 µg/mL
[15]
  MIC: 4 µg/mL
[16]
  MIC: > 8 µg/mL
[17]
  MIC: > 8 µg/mL
[18]
  MIC: 8 µg/mL
[19]
  MIC: 4 µg/mL
[20]
  MIC: > 8 µg/mL
[21]; listed as IPM
  MIC: >8 µg/mL
[21]; [46]
  MIC: > 8 µg/mL
[22]
  MIC: 4 µg/mL
[23]; [47]
  MIC: > 8 µg/mL
[23]; listed as IPM
  MIC: >8 µg/mL
[24]
  MIC: > 8 µg/mL
[25]
  MIC: > 8 µg/mL
[26]; [48]
  MIC: 4 µg/mL
[27]
  MIC: > 8 µg/mL
[28]; [49]
  MIC: 8 µg/mL
[29]
  MIC: > 8 µg/mL
[30]
  MIC: > 8 µg/mL
[31]
  MIC: > 8 µg/mL
[32]; [50]
  MIC: > 8 µg/mL
[32]; VIM-2, listed as IPM
  MIC: >8 µg/mL
[33]
  MIC: > 8 µg/mL
[34]
  MIC: > 8 µg/mL
[35]
  MIC: > 8 µg/mL
[36]
  MIC: 4 µg/mL
[37]
  MIC: > 8 µg/mL
[38]
  MIC: > 8 µg/mL
[39]
  MIC: > 8 µg/mL
[40]
  MIC: 8 µg/mL
[41]
  MIC: > 8 µg/mL
[42]
  MIC: > 8 µg/mL
[43]
  MIC: 1 µg/mL
[44]
  MIC: > 8 µg/mL

## C[C@@H](O)[C@H]1C(=O)N2C(C(=O)O)=C(S[C@@H]3CN[C@H](C(=O)N(C)C)C3)[C@H](C)[C@H]12 [Meropenem]
[3]
  MIC: > 8 µg/mL
[4]
  MIC: > 8 µg/mL
[5]
  MIC: 4 µg/mL
[6]
  MIC: 0.5 µg/mL
[7]
  MIC: > 8 µg/mL
[8]
  MIC: > 8 µg/mL
[9]
  MIC: > 8 µg/mL
[10]
  MIC: > 8 µg/mL
[11]
  MIC: 0.25 µg/mL
[12]
  MIC: > 8 µg/mL
[13]
  MIC: > 8 µg/mL
[14]
  MIC: 2 µg/mL
[15]
  MIC: 0.5 µg/mL
[16]
  MIC: > 8 µg/mL
[17]
  MIC: > 8 µg/mL
[18]
  MIC: ≤ 0.125 µg/mL
[19]
  MIC: 1 µg/mL
[20]
  MIC: > 8 µg/mL
[21]; listed as MEM
  MIC: >8 µg/mL
[21]; [46]
  MIC: > 8 µg/mL
[22]
  MIC: 8 µg/mL
[23]; [47]
  MIC: 4 µg/mL
[24]
  MIC: > 8 µg/mL
[25]
  MIC: > 8 µg/mL
[26]; [48]
  MIC: 2 µg/mL
[27]
  MIC: > 8 µg/mL
[28]; IMP-27, listed as MEM
  MIC: >8 µg/mL
[28]; [49]
  MIC: > 8 µg/mL
[29]
  MIC: > 8 µg/mL
[30]
  MIC: > 8 µg/mL
[31]
  MIC: > 8 µg/mL
[32]; [50]
  MIC: 4 µg/mL
[33]
  MIC: 8 µg/mL
[34]
  MIC: > 8 µg/mL
[35]
  MIC: > 8 µg/mL
[36]
  MIC: 0.5 µg/mL
[37]
  MIC: 8 µg/mL
[38]
  MIC: > 8 µg/mL
[39]
  MIC: > 8 µg/mL
[40]
  MIC: 0.25 µg/mL
[41]
  MIC: > 8 µg/mL
[42]
  MIC: > 8 µg/mL
[43]
  MIC: 4 µg/mL
[44]
  MIC: > 8 µg/mL

## C[C@@H](O)[C@H]1C(=O)N2C(C(=O)O)=C(S[C@@H]3CN[C@H](C(=O)Nc4cccc(C(=O)O)c4)C3)[C@H](C)[C@H]12 [Ertapenem]
[3]
  MIC: > 1 µg/mL
[4]
  MIC: > 1 µg/mL
[5]
  MIC: > 1 µg/mL
[6]
  MIC: > 1 µg/mL
[7]
  MIC: > 1 µg/mL
[8]
  MIC: > 1 µg/mL
[9]
  MIC: > 1 µg/mL
[10]
  MIC: > 1 µg/mL
[11]
  MIC: 1 µg/mL
[12]
  MIC: > 1 µg/mL
[13]
  MIC: > 1 µg/mL
[14]
  MIC: > 1 µg/mL
[15]
  MIC: > 1 µg/mL
[16]
  MIC: > 1 µg/mL
[17]
  MIC: > 1 µg/mL
[18]
  MIC: ≤ 0.25 µg/mL
[19]
  MIC: > 1 µg/mL
[20]
  MIC: > 1 µg/mL
[21]; listed as ERT
  MIC: >1 µg/mL
[21]; [46]
  MIC: > 1 µg/mL
[22]
  MIC: > 1 µg/mL
[23]; [47]
  MIC: > 1 µg/mL
[23]; listed as ERT
  MIC: >1 µg/mL
[24]
  MIC: > 1 µg/mL
[25]
  MIC: > 1 µg/mL
[26]; KPC-4, listed as ERT
  MIC: >1 µg/mL
[26]; [48]
  MIC: > 1 µg/mL
[27]
  MIC: > 1 µg/mL
[28]; IMP-27, listed as ERT
  MIC: >1 µg/mL
[28]; [49]
  MIC: > 1 µg/mL
[29]
  MIC: > 1 µg/mL
[30]
  MIC: > 1 µg/mL
[31]
  MIC: > 1 µg/mL
[32]; [50]
  MIC: > 1 µg/mL
[32]; VIM-2, listed as ERT
  MIC: >1 µg/mL
[33]
  MIC: > 1 µg/mL
[34]
  MIC: > 1 µg/mL
[35]
  MIC: > 1 µg/mL
[36]
  MIC: 0.5 µg/mL
[37]
  MIC: > 1 µg/mL
[38]
  MIC: > 1 µg/mL
[39]
  MIC: > 1 µg/mL
[40]
  MIC: 0.5 µg/mL
[41]
  MIC: > 1 µg/mL
[42]
  MIC: > 1 µg/mL
[43]
  MIC: > 1 µg/mL
[44]
  MIC: > 1 µg/mL

## O=C(O)CN(CCN(CC(=O)O)CC(=O)O)CC(=O)O [EDTA, ethylenediaminetetraacetic acid]
[45]; FIG. 3, FIG. 4, FIG. 15 and FIG. 16 (with TEM/CLOX or DOR/CLOX)
  concentration at which bacteria are sensitive: 250 µg/mL
[45]; FIG. 5 and FIG. 6 (with TEM/CLOX)
  concentration at which bacteria are sensitive: 280 µg/mL

## O=C(O)c1cccc(C(=O)O)n1 [DPA, dipicolinic acid]
[45]; FIG. 9, FIG. 10, FIG. 21 and FIG. 22 (with MEM/CLOX or DOR/CLOX)
  concentration at which bacteria are sensitive: 180 µg/mL
